# Test results as given in patent US20040029215A1, “Process for producing rfrp” (priority 2000, published 2004).
# Ends that are not written are not given here.
# Tested on: cAMP production
# Assay: activity of inhibiting the cAMP production (method of Example 1 of WO 00/29441)
# Format: cell-based
# Conditions: polypeptide obtained in Example 4, compared with the synthetic polypeptide of the same sequence
# Description: The activity of inhibiting the cAMP production was determined for the polypeptide of the invention obtained in Example 4 (the polypeptide having the amino acid sequence of SEQ ID NO: 7) according to the method described in Example 1 of WO 00/29441.
substance,measurement,value
"polypeptide having the amino acid sequence of SEQ ID NO: 7: polypeptide of the invention consisting of 37 amino acid residues, excised from a recombinant RFRP-1/CS23 fusion protein by S-cyanation and ammonolysis (SLNFEELKDWGPKNVIKMSTPAVNKMPHSFANLPLRF; not fully specified (C-terminus))",activity of inhibiting the cAMP production,has the activity as much as the synthetic polypeptide
